From ChEMBL document CHEMBL3769383, “Cefsulodin Inspired Potent and Selective Inhibitors of mPTPB, a Virulent Phosphatase from Mycobacterium tuberculosis” (ACS Med Chem Lett, 2015)

Tests used:
[1] = Inhibition of Mycobacterium tuberculosis PTPB expressed in Escherichia coli BL21/DE3 cells using pNPP as substrate after 5 mins by spectrophotometry
BL21-DE3 = experiment: Potency index, ratio of SPAA IC50 to compound IC50 for Mycobacterium tuberculosis PTPB expressed in Escherichia coli BL21/DE3 cells
[2] = Inhibition of Mycobacterium tuberculosis PTPB

Compound | IC50 [1] | Ratio IC50 (BL21-DE3) | IC50 [2]
O=C(NCCc1ccc(Cl)cc1Cl)C(c1ccccc1)S(=O)(=O)O (racemic) | 290 nM | – | –
CCCNC(=O)C(c1ccccc1)S(=O)(=O)O (racemic) | 16000 nM | 11 | –
O=C(Nc1cccc2ccccc12)C(c1ccccc1)S(=O)(=O)O (racemic) | 720 nM | – | –
O=C(Nc1ccc(-c2ccccc2)cc1)C(c1ccccc1)S(=O)(=O)O (racemic) | 196 nM | – | –
O=C(C(c1ccccc1)S(=O)(=O)O)N1CCCCC1 (racemic) | 950 nM | 180 | –
O=C(C(c1ccccc1)S(=O)(=O)O)N1CCC(Cc2ccccc2)CC1 (racemic) | 40 nM | – | –
NC(=O)c1cc[n+](CC2=C(C(=O)O)N3C(=O)[C@@H](NC(=O)[C@@H](c4ccccc4)S(=O)(=O)[O-])[C@H]3SC2)cc1 [CEFSULODIN SODIUM] | – | – | 16000 nM
